# From patent US11021507B2, “Myricetin derivative and preparing method thereof, and application of same for treating colitis, preventing and treating colitis tumorigenesis, and treating colorectal cancer” (MARINE BIOMEDICAL RESEARCH INSTITUTE OF QINGDAO CO., LTD., priority 2016, dated 2021)
# How the values were obtained:
# [1] = tested on: endoplasmic reticulum stress signaling molecules GRP78, ATF6, PelF-2a and IREa; experiment: AOM/DSS-induced endoplasmic reticulum stress in mouse colon (FIG. 9); type: in vivo, C57BL/6 mice
# Description: FIG. 9 illustrates the mechanism of M10 in inhibiting endoplasmic reticulum stress induced by AOM/DSS in Example 13;
# [2] = Water solubility test (equilibrium solubility in pure water, LC/MS); type: physicochemical; conditions: 37° C.
# Experimental: Water solubility test for myricetin derivative M5, M6 and M10
# Instrument: Waters Alliance e2695 LC/MS; chromatographic column: Waters×Bridge C18 4.6×150 mm.
# Appropriate amount of said myricetin derivative was weighed and dissolved in methanol to prepare a solution of 1 mg/ml respectively, which was diluted with methanol to different concentrations of working solution as standard samples for testing.
# 2. 1 mL of ultrapure water was added into a 1.5 ml transparent EP tube. Appropriate amount of said myricetin derivative was each added into a transparent EP tube, followed by vortex mixation and ultrasonication till the drug was no longer dissolved (the solution appeared cloudy or had suspended particles). The mixture was then placed in an incubating oscillator for shaking at the temperature of (37±1) ° C., 100 r/min, for 24 hours, to achieve a sufficient solubility balance. 24 hours later, the saturated solution was taken out for centrifugation at 3000 r/min for 15 min. The supernatant was immediately filtered through a 0.45 μm microporous membrane, and the initial part of the filtrate was discarded. Samples were added for chromatography. The peak area was measured and the equilibrium solubility of each compound in pure water was calculated using a standard curve.
# KM mice = experiment: Acute toxicity experiment, maximum tolerated dose in mice; type: in vivo
# Experimental: Acute Toxicity Experiment on Myricetin Derivative M10, Testing Maximum Tolerated Dose in Mice.
# Animal germ line: KM mice
# The KM mice with quarantine conformity were selected for the experiment. 10 mice weighing 18 g-22 g each after fasting were randomly selected, labeled and housed in separate cages.
# In accordance with the acute toxicity testing method in Healthy Food Inspection and Evaluation Technical Specifications (2003 edition), sample solutions were prepared and administered twice intragastrically within 24 hours with the maximum dose of 20 mL/kg. Mice were monitored 1, 4, 8, 24, 48, 72, 96, 120, 144, 168 and 336 hours respectively after drug administration, and the maximum tolerable dose in mice was calculated if no mouse died.
# [3] = tested on: signaling molecules ATG3, ATG5, ATG7, ATG12, and ATG1611; experiment: Cellular autophagy caused by AOM/DSS-induced endoplasmic reticulum stress in colonic epithelial cells (FIG. 10); type: in vivo, C57BL/6 mice
# Description: FIG. 10 illustrates the mechanism of M10 in inhibiting cellular autophagy and colonic epithelial cell proliferation and carcinogenesis caused by AOM/DSS-induced endoplasmic reticulum stress in Example 13;
# [4] = tested on: azomethane (AOM)/dextran sulfate sodium (DSS)-induced chronic ulcerative colitis and inflammation-associated tumorigenesis; experiment: AOM/DSS-induced chronic ulcerative colitis and inflammation-associated tumorigenesis in mice; type: in vivo, C57BL/6 mice
# Description: Determination of therapeutic effect of myricetin derivative M10 on azomethane (AOM)/dextran sulfate sodium (DSS)-induced chronic ulcerative colitis and inflammation-associated tumorigenesis.
# Compound tested and control drugs: myricetin derivative M10, control compound myricetin, aspirin (Sigma).
# Experimental animals: C57BL/6 mice, 20 to 22 g, both male and female, SPF grade provided by Beijing Vital Lihua Experimental Animal Company, and mice were fed with standard animal feed.
# Animal models of AOM/DSS-induced chronic colitis and inflammation-associated tumorigenesis: 48 C57BL/6 mice were randomly divided into six groups with eight mice in each group, including model group, for which 0.5% CMC-Na was administered intragastrically every day; aspirin group, for which 100 mg/kg of aspirin (dissolved in 0.5% CMC-Na) was administered intragastrically; myricetin control group, for which 100 mg/kg of myricetin (dissolved in 0.5% CMCNa) was administered intragastrically; M10 high dose group, for which 100 mg/kg of M10 (dissolved in pure water) was administered intragastrically; M10 medium dose group, for which 50 mg/kg of M10 (dissolved in pure water) was administered intragastrically; M10 low dose group, for which 25 mg/kg of M10 (dissolved in pure water) was administered intragastrically.
# Preparation of chronic ulcerative colitis mice model: said groups of mice were intraperitoneally injected with 10 mg/kg of azoxymethane (AOM) on day one. Purified drinking water containing 2% dextran sulfate sodium (DSS) was freshly made and provided on day one and on the next six consecutive days, the replaced by purified drinking water for the next seven consecutive days. The above procedure was then repeated for 3 more times.
# M10-treated group: 200 mg of M10 was weighed and dissolved in 10 mL of 0.5% CMC-Na solution (20 mg/mL), and consecutively diluted 2 times and 5 times for future use. 0.2 mL of each prepared solutions was given intragastrically to mice (the body weight was assumed as 20 g per mouse), namely divided into high, medium or small dose groups. Myricetin control group: 200 mg of myricetin was weighed and dissolved in 10 mL of 0.5% CMC-Na. Aspirin-treated group: 200 mg of aspirin was weighed and dissolved in 10 mL of 0.5% CMC-Na. Administration method: The body weight of mice was measured daily, and drugs were administered at 0.01 mL/g (100 mg/kg) per day for 12 consecutive weeks. 4. Animal observation and treatment methods: weight, diet, diarrhea (or bloody stools) etc. were observed daily.
# At the end of the experiment, mice were sacrificed. The colon and small intestine were dissected out for visual observation and pathological analysis. Pathological examination methods and evaluation criteria: the mice colons of each group were fixed with 10% formalin, followed by routine paraffin embedding, sectioning and HE staining. The developmental degree of colonic inflammation and colon cancer in each group of mice was evaluated under microscopic observation.
compound,measurement,setting,value
O=c1c(O[C@@H]2O[C@H](CO)[C@@H](O[C@@H]3O[C@H](CO)[C@H](O)[C@H](O)[C@H]3O)[C@H](O)[C@H]2O)c(-c2cc(O)c(O)c(O)c2)oc2cc(O)cc(O)c12 [M10],"Swollen endoplasmic reticulum membrane, irregular fracture arrangement",[1]; FIG. 9A,significantly alleviated
same,"Activation of stress signaling molecules GRP78, ATF6, PelF-2a and IREa",[1]; FIG. 9B,significantly inhibited
same,Solubility (in words),"[2]; 24 h, per Table 2",excellent solubility
same,solubility at 24 h,"[2]; ultrapure water, thermodynamic from solid",> 100 mg/mL
same,Maximum tolerable dose in mice,"KM mice; administered twice intragastrically within 24 hours, 0.02 mL/g, 250 mg/mL, 14 days observation",more than 5 g/kg
same,Toxicity during whole observation period,KM mice; fourteen days observation,no obvious toxicity
same,Death,"KM mice; mouse, in vivo",No death
same,Autophagic vacuoles in colonic epithelial cells with mitochondrial swelling,[3]; FIG. 10A,significantly alleviated
same,"Activation of signaling molecules ATG3, ATG5, ATG7, ATG12 and ATG1611",[3]; FIG. 10B,significantly inhibited
same,Pathological analysis of colon tissue (colon cancer),"[4]; 100 mg/kg aspirin or myricetin, M10 25-100 mg/kg, 12 weeks, FIG. 8",significant activity of preventing and treating colon cancer
same,"Symptoms of AOM/DSS-induced chronic colitis (body weight loss, loose stools, blood in stool)","[4]; M10 25, 50 and 100 mg/kg intragastrically, 12 weeks",significantly alleviated
same,Number of colon tumor nodules,"[4]; all doses (25, 50, 100 mg/kg), after 12 weeks, FIG. 6 and FIG. 7",significantly reduced
same,Loss of body weight induced by AOM/DSS,"[4]; intragastric, 12 weeks, week 10 to 12, FIG. 4",significantly prevented
